Where two headings read alike, the source gives them in different places. A value given as a limit tells only on which side of the number the result lay.

For one assay, the target named is T1, human CB2 receptors (Homo sapiens, UniProt P34972).
T1 construct: expressed in transfected cells; host or cells: CHO cells
The assay can be described thus: functional cAMP assay, human CB2. Conditions: CHO cells expressing human CB2, cAMP; read-out: human CB2 EC50. In kind it is cell-based. The method, boiled down:
(§1)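 Cells are seeded 17-24 h ahead, then preincubated in Krebs Ringer bicarbonate buffer with 1 mM IBMX at 30 °C. Compounds act for 30 min at 30 °C, after which lysis and cAMP detection reagents are added for 2 h at room temperature. Time-resolved FRET gives cAMP content, and EC50 values are fitted from it.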
Background: cAMP levels reflect the balance of adenylyl cyclase and phosphodiesterase activity.

Another assay concerns the target T2, human CB1 receptors (Homo sapiens, UniProt P21554).
T2 construct: expressed in transfected cells; host or cells: CHO cells
Put plainly: functional cAMP assay, human CB1. In kind it is cell-based. The method, boiled down:
as §1

[1] abbreviates: CHO cells expressing human CB1, cAMP, read-out: human CB1 EC50.

T2 sequence (P21554 whole entry): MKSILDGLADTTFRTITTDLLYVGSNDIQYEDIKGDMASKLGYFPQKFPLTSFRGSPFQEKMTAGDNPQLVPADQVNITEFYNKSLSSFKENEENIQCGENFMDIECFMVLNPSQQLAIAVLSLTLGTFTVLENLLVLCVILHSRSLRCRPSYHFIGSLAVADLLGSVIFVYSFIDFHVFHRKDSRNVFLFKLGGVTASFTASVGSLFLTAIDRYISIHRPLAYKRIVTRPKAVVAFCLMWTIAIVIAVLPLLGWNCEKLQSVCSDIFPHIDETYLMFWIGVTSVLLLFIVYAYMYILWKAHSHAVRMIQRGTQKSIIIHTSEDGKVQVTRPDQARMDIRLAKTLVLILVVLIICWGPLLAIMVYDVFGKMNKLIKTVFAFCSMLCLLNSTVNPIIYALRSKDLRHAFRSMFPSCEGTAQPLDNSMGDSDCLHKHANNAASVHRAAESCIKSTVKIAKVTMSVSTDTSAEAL
T1 sequence (P34972 whole entry): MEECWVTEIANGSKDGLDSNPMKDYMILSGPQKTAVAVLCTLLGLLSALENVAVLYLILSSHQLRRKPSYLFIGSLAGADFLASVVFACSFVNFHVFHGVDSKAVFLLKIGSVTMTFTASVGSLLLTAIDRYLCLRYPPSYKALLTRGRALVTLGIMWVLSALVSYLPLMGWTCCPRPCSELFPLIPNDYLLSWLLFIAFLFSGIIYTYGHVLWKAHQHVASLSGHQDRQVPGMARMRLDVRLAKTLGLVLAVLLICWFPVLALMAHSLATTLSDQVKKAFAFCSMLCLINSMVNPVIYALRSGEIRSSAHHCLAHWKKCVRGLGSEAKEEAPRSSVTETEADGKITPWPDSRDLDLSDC

As a reminder, the EC50 is the midpoint of the concentration-response curve. For `Cc1nonc1Cn1nnc2c(N3CCC(F)(F)C3)nc(C(C)(C)C)nc21` [Example 101, 5-tert-Butyl-7-(3,3-difluoro-pyrrolidin-1-yl)-3-(4-methyl-furazan-3-ylmethyl)-3H-[1,2,3]triazolo[4,5-d]pyrimidine], the EC50 was 0.1 nM on human CB2 receptors and > 10000 nM on human CB1 receptors (setting [1]).

In the case of `CC(C)(C)c1nc(N2CCC(=O)C2)c2nnn(Cc3ccccc3Cl)c2n1` [Example 188, 1-[5-tert-Butyl-3-(2-chloro-benzyl)-3H-[1,2,3]triazolo[4,5-d]pyrimidin-7-yl]-pyrrolidin-3-one], the EC50 is 1 nM on human CB2 receptors and > 10000 nM at human CB1 receptors (setting [1]).

For `Cc1nnc(Cn2nnc3c(N4CC[C@H](O)C4)nc(C(C)(C)C)nc32)n1C` [Example 153, (S)-1-[5-tert-Butyl-3-(4,5-dimethyl-4H-[1,2,4]triazol-3-ylmethyl)-3H-[1,2,3]triazolo[4,5-d]pyrimidin-7-yl]-pyrrolidin-3-ol], the EC50 on human CB2 receptors was 11.9 nM; at human CB1 receptors (setting [1]), > 10000 nM.

For `CC(C)(C)c1nc(N2CCOCC2(C)C)c2nnn(Cc3ccccc3Cl)c2n1` [Example 24, 5-tert-Butyl-3-(2-chloro-benzyl)-7-(3,3-dimethyl-morpholin-4-yl)-3H-[1,2,3]triazolo[4,5-d]pyrimidine], the EC50 on human CB2 receptors was 3 nM; on human CB1 receptors (setting [1]), 476 nM.

On to `CC(C)(C)c1nc(N2CCC(F)(F)C2)c2nnn(Cc3ccccc3Cl)c2n1` [Example 6, 5-tert-Butyl-3-(2-chloro-benzyl)-7-(3,3-difluoro-pyrrolidin-1-yl)-3H-[1,2,3]triazolo[4,5-d]pyrimidine], for which the EC50 on human CB2 receptors was found to be 0.2 nM; on human CB1 receptors (setting [1]), 165 nM.

For `CC(C)(C)c1nc(N2CC[C@H](O)C2)c2nnn(Cc3cccnc3Cl)c2n1` [Example 140, (S)-1-[5-tert-Butyl-3-(2-chloro-pyridin-3-ylmethyl)-3H-[1,2,3]triazolo[4,5-d]pyrimidin-7-yl]-pyrrolidin-3-ol], the figures for the EC50 on human CB2 receptors and at human CB1 receptors (setting [1]) were 0.1 nM and > 10000 nM, respectively.

Consider `CC(C)(C)c1nc(N2CCS(=O)(=O)CC2)c2nnn(Cc3ccccc3Cl)c2n1` [Example 21, 5-tert-Butyl-3-(2-chloro-benzyl)-7-(1,1-dioxo-1λ6-thiomorpholin-4-yl)-3H-[1,2,3]triazolo[4,5-d]pyrimidine], for which the EC50 at human CB2 receptors stood at 2.7 nM; at human CB1 receptors (setting [1]), 601 nM.

As for `CC(C)(C)c1nc(N2CCC(F)(F)C2)c2nnn(Cc3c(C(F)(F)F)ccc(Cl)c3Cl)c2n1` [Example 123, 5-tert-Butyl-3-(2,3-dichloro-6-trifluoromethyl-benzyl)-7-(3,3-difluoro-pyrrolidin-1-yl)-3H-[1,2,3]triazolo[4,5-d]pyrimidine], the EC50 was found to be 0.8 nM at human CB2 receptors and 306 nM at human CB1 receptors (setting [1]).

With `CC(C)(C)c1nc(N2CCC(F)(F)C2)c2nnn(Cc3ccncc3)c2n1` [Example 75, 5-tert-Butyl-7-(3,3-difluoro-pyrrolidin-1-yl)-3-pyridin-4-ylmethyl-3H-[1,2,3]triazolo[4,5-d]pyrimidine], the figures for the EC50 on human CB2 receptors and on human CB1 receptors (setting [1]) were 0.2 nM and 97.8 nM, respectively.

Regarding `CC(C)(C)c1nc(N2CCC(F)(F)C2)c2nnn([C@@H]3CCOC3)c2n1` [Example 108, 5-tert-Butyl-7-(3,3-difluoro-pyrrolidin-1-yl)-3-(R)-tetrahydro-furan-3-yl-3H-[1,2,3]triazolo[4,5-d]pyrimidine], the EC50 at human CB2 receptors was 0.3 nM; on human CB1 receptors (setting [1]), > 10000 nM.

In the case of `CC(C)(C)c1nc(N2CCCC2)c2nnn(Cc3ccccc3Cl)c2n1` [Example 5, 5-tert-Butyl-3-(2-chloro-benzyl)-7-pyrrolidin-1-yl-3H-[1,2,3]triazolo[4,5-d]pyrimidine], the EC50 was determined as 0.3 nM at human CB2 receptors and 632 nM on human CB1 receptors (setting [1]).

On to `Cc1nc(Cn2nnc3c(N4CC[C@H](O)C4)nc(C(C)(C)C)nc32)no1` [Example 149, (S)-1-[5-tert-Butyl-3-(5-methyl-[1,2,4]oxadiazol-3-ylmethyl)-3H-[1,2,3]triazolo[4,5-d]pyrimidin-7-yl]-pyrrolidin-3-ol], for which the EC50 on human CB2 receptors is 17.4 nM; on human CB1 receptors (setting [1]) it was > 10000 nM.

`CC(C)(C)c1nc(N2CCC(F)(F)C2)c2nnn(CCc3cccc(Cl)c3)c2n1` [Example 104, 5-tert-Butyl-3-[2-(3-chloro-phenyl)-ethyl]-7-(3,3-difluoro-pyrrolidin-1-yl)-3H-[1,2,3]triazolo[4,5-d]pyrimidine]: the EC50 was 0.9 nM at human CB2 receptors and > 10000 nM on human CB1 receptors (setting [1]).

Regarding `CC(C)(C)c1nc(N2CCC(F)(F)C2)c2nnn(CCc3ccccc3Cl)c2n1` [Example 103, 5-tert-Butyl-3-[2-(2-chloro-phenyl)-ethyl]-7-(3,3-difluoro-pyrrolidin-1-yl)-3H-[1,2,3]triazolo[4,5-d]pyrimidine], the figures for the EC50 at human CB2 receptors and on human CB1 receptors (setting [1]) were 0.4 nM and 415 nM, respectively.

Take `Cc1noc(Cn2nnc3c(N4CC5(COC5)C4)nc(C(C)(C)C)nc32)n1` [Example 180, 5-tert-Butyl-3-(3-methyl-[1,2,4]oxadiazol-5-ylmethyl)-7-(2-oxa-6-aza-spiro[3.3]hept-6-yl)-3H-[1,2,3]triazolo[4,5-d]pyrimidine]: the EC50 on human CB2 receptors is 52.8 nM; on human CB1 receptors (setting [1]) it was > 10000 nM.

Regarding `Cc1nnc(Cn2nnc3c(N4CCC(F)(F)C4)nc(C(C)(C)C)nc32)n1C` [Example 146, 5-tert-Butyl-7-(3,3-difluoro-pyrrolidin-1-yl)-3-(4,5-dimethyl-4H-[1,2,4]triazol-3-ylmethyl)-3H-[1,2,3]triazolo[4,5-d]pyrimidine], the EC50 at human CB2 receptors is 0.5 nM; at human CB1 receptors (setting [1]), > 10000 nM.

`CC(C)(C)c1nc(N2CCC(F)(F)CC2)c2nnn(Cc3ccccc3Cl)c2n1` [Example 3, 5-tert-Butyl-3-(2-chloro-benzyl)-7-(4,4-difluoro-piperidin-1-yl)-3H-[1,2,3]triazolo[4,5-d]pyrimidine]: the EC50 at human CB2 receptors stood at 1.3 nM; on human CB1 receptors (setting [1]), 160 nM.

For the compound `CC(C)(C)c1nc(N2CCCC23COC3)c2nnn(Cc3ccccc3Cl)c2n1` [Example 53, 5-tert-Butyl-3-(2-chloro-benzyl)-7-(2-oxa-5-aza-spiro[3.4]oct-5-yl)-3H-[1,2,3]triazolo[4,5-d]pyrimidine], the EC50 on human CB2 receptors was 15 nM; at human CB1 receptors (setting [1]) it was > 10000 nM.

Take `Cc1nnc(Cn2nnc3c(N4CC(F)(F)C(F)(F)C4)nc(C(C)(C)C)nc32)n1C` [Example 177, 5-tert-Butyl-3-(4,5-dimethyl-4H-[1,2,4]triazol-3-ylmethyl)-7-(3,3,4,4-tetrafluoro-pyrrolidin-1-yl)-3H-[1,2,3]triazolo[4,5-d]pyrimidine]: the EC50 is 1.1 nM at human CB2 receptors and > 10000 nM at human CB1 receptors (setting [1]).

`Cn1ccc(C2CCCN2c2nc(C(C)(C)C)nc3c2nnn3Cc2ccccc2Cl)n1` (stereo not shown) [Example 200, 5-tert-Butyl-3-(2-chloro-benzyl)-7-[2-(1-methyl-1H-pyrazol-3-yl)-pyrrolidin-1-yl]-3H-[1,2,3]triazolo[4,5-d]pyrimidine]: the EC50 on human CB2 receptors was 178 nM; on human CB1 receptors it was > 10000 nM.

For the compound `CC(Oc1nc(C(C)(C)C)nc2c1nnn2Cc1ccccc1Cl)C(F)(F)F` (stereo not shown) [Example 214, 5-tert-Butyl-3-(2-chloro-benzyl)-7-(2,2,2-trifluoro-1-methyl-ethoxy)-3H-[1,2,3]triazolo[4,5-d]pyrimidine], the EC50 was 9.4 nM at human CB2 receptors and > 10000 nM at human CB1 receptors (setting [1]).

Regarding `CC(C)(C)c1nc(N2CCC[C@@H](O)C2)c2nnn(Cc3ccccc3Cl)c2n1` [Example 34, (R)-1-[5-tert-Butyl-3-(2-chloro-benzyl)-3H-[1,2,3]triazolo[4,5-d]pyrimidin-7-yl]-piperidin-3-ol], the EC50 at human CB2 receptors turned out to be 27.5 nM; at human CB1 receptors (setting [1]), 2270 nM.

For the compound `CC(=O)N[C@@H]1CCN(c2nc(C(C)(C)C)nc3c2nnn3Cc2ccccc2Cl)C1` [Example 193, N-{(R)-1-[5-tert-Butyl-3-(2-chloro-benzyl)-3H-[1,2,3]triazolo[4,5-d]pyrimidin-7-yl]-pyrrolidin-3-yl}-acetamide], the EC50 is 593 nM at human CB2 receptors and > 10000 nM at human CB1 receptors (setting [1]).

Turning to `CC(C)(C)c1nc(N2CCC(F)(F)C2)c2nnn(Cc3ccccc3S(C)(=O)=O)c2n1` [Example 112, 5-tert-Butyl-7-(3,3-difluoro-pyrrolidin-1-yl)-3-(2-methanesulfonyl-benzyl)-3H-[1,2,3]triazolo[4,5-d]pyrimidine], the EC50 was found to be 0.1 nM at human CB2 receptors and 4.7 nM on human CB1 receptors (setting [1]).

For `CCN(CC)c1nc(C(C)(C)C)nc2c1nnn2Cc1ccccc1Cl` [Example 9, [5-tert-Butyl-3-(2-chloro-benzyl)-3H-[1,2,3]triazolo[4,5-d]pyrimidin-7-yl]-diethyl-amine], the EC50 is 17.6 nM at human CB2 receptors and > 10000 nM at human CB1 receptors (setting [1]).

Regarding `CC(C)(C)c1nc(N2CCC(F)(F)C2)c2nnn(CC(F)(F)F)c2n1` [Example 76, 5-tert-Butyl-7-(3,3-difluoro-pyrrolidin-1-yl)-3-(2,2,2-trifluoro-ethyl)-3H-[1,2,3]triazolo[4,5-d]pyrimidine], the EC50 at human CB2 receptors is 2.3 nM; on human CB1 receptors (setting [1]) it was > 10000 nM.

As to `CC(C)(C)c1nc(N2CC[C@H](O)C2)c2nnn(Cc3ccccc3)c2n1` [Example 217, (3S)-1-(3-benzyl-5-tert-butyl-triazolo[4,5-d]pyrimidin-7-yl)pyrrolidin-3-ol], the figures for the EC50 on human CB2 receptors and on human CB1 receptors (setting [1]) were 3.3 nM and > 10000 nM, respectively.

As to `CC(C)(C)c1nc(N2CCC(F)(F)C2)c2nnn(Cc3cccc(Cl)c3Cl)c2n1` [Example 67, 5-tert-Butyl-3-(2,3-dichloro-benzyl)-7-(3,3-difluoro-pyrrolidin-1-yl)-3H-[1,2,3]triazolo[4,5-d]pyrimidine], the EC50 on human CB2 receptors was 0.2 nM; on human CB1 receptors (setting [1]) it was 162 nM.

Consider `Cn1ncnc1Cn1nnc2c(N3CC[C@H](O)[C@@H]3CO)nc(C(C)(C)C)nc21` [Example 169, (2S,3S)-1-[5-tert-Butyl-3-(2-methyl-2H-[1,2,4]triazol-3-ylmethyl)-3H-[1,2,3]triazolo[4,5-d]pyrimidin-7-yl]-2-hydroxymethyl-pyrrolidin-3-ol], for which the values for the EC50 on human CB2 receptors and on human CB1 receptors were 199 nM and > 10000 nM, respectively.

For the origin of these results see US8741906B2 (priority 2011, dated 2014).
